Data: US6340677B1, “Method of evaluation of skin conditioning-ameliorating agents and method of producing compositions for topical application to skin” (Pola Chemical Industries, Inc., priority 1997, dated 2002)

Test system: mouse photo-aging model
Test: degree of order of dermis collagen fiber bundle in the mouse photo-aging model (score 0 to 3 from electron microphotographs)
Format: in vivo, hairless mice (Skh: HR-1)
Settings: 0.05% solution in ethanol
Description: Five groups of hairless mice (Skh: HR-1,female, 8-week-old), each group comprising six mice, were prepared. A part of skin and replica of skin surface morphology were excised from each mouse of one group of them when they were 8 weeks old without the following ultraviolet light irradiation, namely in-the state of before the ultraviolet light irradiation. About the remaining four groups, each mouse was irradiated with ultraviolet light B (Toshiba SE lamp, 60 mJ/cm^2) once per day for 5 days a week and fed up. The irradiation of the ultraviolet light to one group among the four groups described-above was stopped after one week of the initiation of the irradiation and at this time a part of skin and replica of skin surface morphology were excised from each mouse of the group. As the same manner, the irradiation of the ultraviolet light to the another group and to the further another group were stopped after two and five weeks of the initiation of the irradiation and then a part of skin and replica of skin surface morphology were excised from each mouse of the groups respectively. The irradiation of the ultraviolet light to the last group was continued to 10 weeks after initiation of the irradiation to prepare the mouse photo-aging models. Thus the total amount of the ultraviolet light irradiated to the mouse photo-aging models was 3J/cm^2. A part of skin and replica of skin surface morphology were also excised from each mouse photo-aging model obtained above. […] Each of the solution was given in an amount of 0.05 ml once a day for consecutive 8 weeks. After completion of the application, a part of the skin was excised from each mouse to take photographs of its surface morphology under scanning electron microscope. […] Evaluation was carried out using the value calculated by dividing the degree of order of the dermis collagen fiber bundle measured by the above method after the application by that before the application.

C[C@@H]1C[C@H]2[C@@H]3CCC4=CC(=O)C=C[C@]4(C)[C@@]3(F)[C@@H](O)C[C@]2(C)[C@@]1(O)C(=O)CO [dexamethasone]
average of the scores of the degree of order of dermis collagen fiber bundle (0.05 ml once a day for consecutive 8 weeks, five mice, score 0 to 3, 2,500 magnification, before application 0.82): 1.71
degree of amelioration of skin conditions (average score of treated group / average score of ethanol-applied group) (8 weeks, 1.71/0.78): 2.28
degree of amelioration of skin conditions (score after application / score before application) (8 weeks, 1.71/0.82): 2.09
